Data taken from patent publication US20020013350A1 (priority 1998, published 2002).

System: cabbage black rot bacterium (Xanthomonas campestris)
Assay: Control test on cabbage black rot
Format: in vivo
Conditions: 350 ppm, cabbage sprayed four times at intervals of 7 days
Source text: Two days after the second spraying, the cabbage was inoculated with an aqueous suspension of cabbage black rot bacterium (Xanthomonas campestris) by the method of spraying. Two weeks after the final spraying, the cabbage was investigated to calculated the degree of disease occurrence according to the following criterion. In the untreated plot, the degree of disease occurrence was 44.7.
Degree of disease occurrence=Σ(Number of hills at every degree of occurrence)×100÷(Number of hills investigated×3)
From the degree of disease occurrence, controlling degree was calculated according to the following equation. […] [formula]

## Oc1cccc2cccnc12.[Cu] [8-Hydroxyquinoline-copper, 8-Hydroxyquinoline copper]
  Controlling degreee (%): 59%
  Degree of disease occurrence: 18.2
  Percentage of diseased hills (%): 54.5%
